Experimental data published in ChEMBL document CHEMBL4184135, “Waspergillamide A, a Nitro depsi-Tetrapeptide Diketopiperazine from an Australian Mud Dauber Wasp-Associated Aspergillus sp. (CMB-W031)” (J Nat Prod, 2017).
Active and inactive are the calls of the source.

How the values were obtained:
Staphylococcus aureus = experiment: Antimicrobial activity against Staphylococcus aureus ATCC 25923 assessed as inhibition of microbial growth at 0.125 to 32 ug/mL incubated for 24 hrs by broth micro-dilution method; type: functional, organism-based
Escherichia coli = experiment: Antimicrobial activity against Escherichia coli ATCC 25922 assessed as inhibition of microbial growth at 0.125 to 32 ug/mL incubated for 24 hrs by broth micro-dilution method; type: functional, organism-based
Pseudomonas aeruginosa = experiment: Antimicrobial activity against Pseudomonas aeruginosa ATCC 27853 assessed as inhibition of microbial growth at 0.125 to 32 ug/mL incubated for 24 hrs by broth micro-dilution method; type: functional, organism-based
SW-620 = experiment: Cytotoxicity against human SW620 cells assessed as inhibition of cell growth at 10 nM to 30 uM incubated for 72 hrs by MTT assay; type: functional, cell-based
NCI-H460 = experiment: Cytotoxicity against human NCI-H460 cells assessed as inhibition of cell growth at 10 nM to 30 uM incubated for 72 hrs by MTT assay; type: functional, cell-based
KB 3-1 = experiment: Cytotoxicity against human KB-3-1 cells assessed as inhibition of cell growth at 10 nM to 30 uM incubated for 72 hrs by MTT assay; type: functional, cell-based

Measured: growth inhibition (GI)

CC(C)/C=C1\NC(=O)[C@@H](C(C)(C)OC(=O)CNC(=O)c2ccc([N+](=O)[O-])cc2)NC1=O
inactive: all assays above
